Assay [1] concerns the target Hepatocyte growth factor receptor (Homo sapiens, UniProt P08581). The experiment in a line: Inhibition of human recombinant His-tagged cMET expressed in baculovirus expression system reduction in phosphorylation using tyrosine 6 peptide as substrate after 60 mins FRET based Z'-LYTE assay.
In assay [2] the test system is A-431. Description: Antiproliferative activity against human A431 cells assessed as reduction in cell viability after 24 hrs by MTT assay. The format is functional, cell-based. To be noted: A-431, 24 h. Background: Tetrazolium assays rely on reduction of a dye to a coloured formazan, in cell work by metabolically active cells.
In assay [3] the test system is A549. The experiment in a line: cells. To be noted: Homo sapiens, A549, 24 h.
Description: Antiproliferative activity against human A549 cells assessed as reduction in cell viability after 24 hrs by MTT assay
The target in assay [4] is Epidermal growth factor receptor (Homo sapiens, UniProt P00533, L858R). Description: Inhibition of human recombinant GST-tagged EGFR L858R mutant expressed in baculovirus expression system reduction in phosphorylation using tyrosine 4 peptide as substrate after 60 mins FRET based Z'-LYTE assay.
Assay [5] deals with Epidermal growth factor receptor (Homo sapiens, UniProt P00533, L858R/T790M). Description: Inhibition of human recombinant GST-tagged EGFR L858R/T790M mutant expressed in baculovirus expression system reduction in phosphorylation using tyrosine 4 peptide as substrate after 60 mins FRET based Z'-LYTE assay.
Assay [6] concerns NCI-H460. The experiment in a line: Antiproliferative activity against human H460 cells assessed as reduction in cell viability after 24 hrs by MTT assay. The format is functional, cell-based. To be noted: NCI-H460, 24 h.
Assay [7] deals with A549. The experiment in a line: Antiproliferative activity against human A549 cells assessed as cell viability at 20 uM after 48 hrs by MTT assay relative to control. The format is functional. The following applies: A549, 48 h, read-out: Activity.
The subject of assay [8] is NCI-H460. Description: Antiproliferative activity against human H460 cells assessed as cell viability at 10 uM after 48 hrs by MTT assay relative to control. The format is functional. The following applies: NCI-H460, 48 h, read-out: Activity.
In assay [9] the test system is A-431. The experiment in a line: Antiproliferative activity against human A431 cells assessed as cell viability at 30 uM after 48 hrs by MTT assay relative to control. The format is functional. To be noted: A-431, 48 h, read-out: Activity.
For assay [10], the system named is NCI-H460. Description: Antiproliferative activity against human H460 cells assessed as cell viability at 40 uM after 48 hrs by MTT assay relative to control. To be noted: NCI-H460, 48 h, read-out: Activity. The class given is functional.
For assay [11], the system named is A549. Description: Antiproliferative activity against human A549 cells assessed as cell viability at 10 uM after 48 hrs by MTT assay relative to control. To be noted: A549, 48 h, read-out: Activity. The format is functional.
The test system of assay [12] is A549. The experiment in a line: Antiproliferative activity against human A549 cells assessed as cell viability at 40 uM after 48 hrs by MTT assay relative to control. The following applies: A549, 48 h, read-out: Activity. The class given is functional.
The subject of assay [13] is NCI-H460. Description: Antiproliferative activity against human H460 cells assessed as cell viability at 30 uM after 48 hrs by MTT assay relative to control. The class given is functional. The following applies: NCI-H460, 48 h, read-out: Activity.
The subject of assay [14] is NCI-H460. Description: Antiproliferative activity against human H460 cells assessed as cell viability at 20 uM after 48 hrs by MTT assay relative to control. The class given is functional. To be noted: NCI-H460, 48 h, read-out: Activity.
For assay [15], the system named is A-431. The experiment in a line: Antiproliferative activity against human A431 cells assessed as cell viability at 20 uM after 48 hrs by MTT assay relative to control. The format is functional. The following applies: A-431, 48 h, read-out: Activity.
Assay [16] deals with A-431. The experiment in a line: Antiproliferative activity against human A431 cells assessed as cell viability at 10 uM after 48 hrs by MTT assay relative to control. The class given is functional. The following applies: A-431, 48 h, read-out: Activity.
For assay [17], the system named is A-431. The experiment in a line: Antiproliferative activity against human A431 cells assessed as cell viability at 40 uM after 48 hrs by MTT assay relative to control. The format is functional. The following applies: A-431, 48 h, read-out: Activity.
The test system of assay [18] is A549. The experiment in a line: Antiproliferative activity against human A549 cells assessed as cell viability at 30 uM after 48 hrs by MTT assay relative to control. The format is functional. To be noted: A549, 48 h, read-out: Activity.

Sequence of Epidermal growth factor receptor (Homo sapiens, UniProt P00533, L858R/T790M) (P00533 25-1210 T790M/L858R limits assumed): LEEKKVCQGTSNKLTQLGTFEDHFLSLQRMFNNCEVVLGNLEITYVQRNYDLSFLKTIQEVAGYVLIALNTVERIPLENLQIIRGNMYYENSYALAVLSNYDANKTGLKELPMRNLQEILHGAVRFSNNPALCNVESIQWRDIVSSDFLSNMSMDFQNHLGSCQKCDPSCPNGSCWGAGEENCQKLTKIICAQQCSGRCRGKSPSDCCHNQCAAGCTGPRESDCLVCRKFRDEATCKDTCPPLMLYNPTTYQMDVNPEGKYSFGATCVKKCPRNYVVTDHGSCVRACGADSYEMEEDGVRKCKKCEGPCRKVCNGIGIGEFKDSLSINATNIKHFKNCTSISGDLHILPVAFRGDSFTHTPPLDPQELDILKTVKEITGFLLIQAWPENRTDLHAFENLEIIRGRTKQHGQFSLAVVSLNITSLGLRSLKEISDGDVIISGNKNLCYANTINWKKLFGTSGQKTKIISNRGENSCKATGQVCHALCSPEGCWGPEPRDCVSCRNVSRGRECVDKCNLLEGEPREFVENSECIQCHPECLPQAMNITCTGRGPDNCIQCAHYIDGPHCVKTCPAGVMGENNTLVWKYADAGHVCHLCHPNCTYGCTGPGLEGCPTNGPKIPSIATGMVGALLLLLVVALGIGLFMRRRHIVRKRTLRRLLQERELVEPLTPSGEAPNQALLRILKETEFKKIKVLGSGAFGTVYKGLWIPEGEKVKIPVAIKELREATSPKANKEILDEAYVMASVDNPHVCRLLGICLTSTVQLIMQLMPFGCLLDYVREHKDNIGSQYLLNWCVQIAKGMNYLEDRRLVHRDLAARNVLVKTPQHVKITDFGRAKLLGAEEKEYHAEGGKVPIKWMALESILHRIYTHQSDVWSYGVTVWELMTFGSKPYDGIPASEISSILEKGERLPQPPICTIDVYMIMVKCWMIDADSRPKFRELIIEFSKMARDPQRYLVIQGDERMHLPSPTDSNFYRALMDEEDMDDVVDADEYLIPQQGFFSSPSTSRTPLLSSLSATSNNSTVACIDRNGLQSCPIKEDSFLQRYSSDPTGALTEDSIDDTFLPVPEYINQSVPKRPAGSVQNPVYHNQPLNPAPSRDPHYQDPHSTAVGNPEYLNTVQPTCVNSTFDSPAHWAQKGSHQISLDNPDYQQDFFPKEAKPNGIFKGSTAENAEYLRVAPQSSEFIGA
Sequence of Hepatocyte growth factor receptor (P08581 whole entry): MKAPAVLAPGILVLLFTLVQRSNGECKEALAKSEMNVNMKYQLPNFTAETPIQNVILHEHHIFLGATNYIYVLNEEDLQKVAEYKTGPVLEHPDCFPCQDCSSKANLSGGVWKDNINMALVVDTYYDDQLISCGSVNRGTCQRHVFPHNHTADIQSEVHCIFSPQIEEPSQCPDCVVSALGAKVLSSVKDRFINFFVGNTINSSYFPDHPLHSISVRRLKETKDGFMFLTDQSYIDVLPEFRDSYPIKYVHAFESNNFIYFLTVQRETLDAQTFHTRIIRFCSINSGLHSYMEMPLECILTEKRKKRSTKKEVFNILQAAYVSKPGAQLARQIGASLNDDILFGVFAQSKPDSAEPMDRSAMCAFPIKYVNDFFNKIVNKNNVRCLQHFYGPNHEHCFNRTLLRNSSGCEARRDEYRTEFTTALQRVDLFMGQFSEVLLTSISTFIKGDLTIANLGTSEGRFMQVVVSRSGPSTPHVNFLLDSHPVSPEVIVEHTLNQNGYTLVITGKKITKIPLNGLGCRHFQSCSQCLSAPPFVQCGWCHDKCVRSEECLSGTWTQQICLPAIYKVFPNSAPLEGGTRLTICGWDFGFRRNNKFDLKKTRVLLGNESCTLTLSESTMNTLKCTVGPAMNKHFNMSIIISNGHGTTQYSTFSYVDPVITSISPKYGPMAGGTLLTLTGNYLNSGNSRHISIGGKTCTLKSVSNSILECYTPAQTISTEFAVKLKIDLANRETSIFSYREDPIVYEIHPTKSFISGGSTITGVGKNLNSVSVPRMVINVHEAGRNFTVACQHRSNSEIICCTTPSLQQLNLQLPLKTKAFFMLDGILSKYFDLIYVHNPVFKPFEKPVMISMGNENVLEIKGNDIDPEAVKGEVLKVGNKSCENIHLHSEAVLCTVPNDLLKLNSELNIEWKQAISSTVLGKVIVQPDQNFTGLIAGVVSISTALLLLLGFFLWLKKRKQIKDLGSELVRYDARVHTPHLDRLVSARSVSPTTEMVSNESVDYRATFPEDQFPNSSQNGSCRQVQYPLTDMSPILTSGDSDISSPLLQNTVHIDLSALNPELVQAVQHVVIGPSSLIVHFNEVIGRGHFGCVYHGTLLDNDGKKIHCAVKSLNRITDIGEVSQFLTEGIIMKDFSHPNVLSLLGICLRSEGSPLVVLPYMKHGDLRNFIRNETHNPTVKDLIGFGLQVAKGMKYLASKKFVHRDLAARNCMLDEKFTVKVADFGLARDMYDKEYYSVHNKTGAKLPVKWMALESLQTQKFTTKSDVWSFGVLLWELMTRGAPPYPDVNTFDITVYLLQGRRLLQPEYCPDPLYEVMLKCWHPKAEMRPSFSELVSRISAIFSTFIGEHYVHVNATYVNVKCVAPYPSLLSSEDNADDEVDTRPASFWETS
Sequence of Epidermal growth factor receptor (Homo sapiens, UniProt P00533, L858R) (P00533 25-1210 L858R limits assumed): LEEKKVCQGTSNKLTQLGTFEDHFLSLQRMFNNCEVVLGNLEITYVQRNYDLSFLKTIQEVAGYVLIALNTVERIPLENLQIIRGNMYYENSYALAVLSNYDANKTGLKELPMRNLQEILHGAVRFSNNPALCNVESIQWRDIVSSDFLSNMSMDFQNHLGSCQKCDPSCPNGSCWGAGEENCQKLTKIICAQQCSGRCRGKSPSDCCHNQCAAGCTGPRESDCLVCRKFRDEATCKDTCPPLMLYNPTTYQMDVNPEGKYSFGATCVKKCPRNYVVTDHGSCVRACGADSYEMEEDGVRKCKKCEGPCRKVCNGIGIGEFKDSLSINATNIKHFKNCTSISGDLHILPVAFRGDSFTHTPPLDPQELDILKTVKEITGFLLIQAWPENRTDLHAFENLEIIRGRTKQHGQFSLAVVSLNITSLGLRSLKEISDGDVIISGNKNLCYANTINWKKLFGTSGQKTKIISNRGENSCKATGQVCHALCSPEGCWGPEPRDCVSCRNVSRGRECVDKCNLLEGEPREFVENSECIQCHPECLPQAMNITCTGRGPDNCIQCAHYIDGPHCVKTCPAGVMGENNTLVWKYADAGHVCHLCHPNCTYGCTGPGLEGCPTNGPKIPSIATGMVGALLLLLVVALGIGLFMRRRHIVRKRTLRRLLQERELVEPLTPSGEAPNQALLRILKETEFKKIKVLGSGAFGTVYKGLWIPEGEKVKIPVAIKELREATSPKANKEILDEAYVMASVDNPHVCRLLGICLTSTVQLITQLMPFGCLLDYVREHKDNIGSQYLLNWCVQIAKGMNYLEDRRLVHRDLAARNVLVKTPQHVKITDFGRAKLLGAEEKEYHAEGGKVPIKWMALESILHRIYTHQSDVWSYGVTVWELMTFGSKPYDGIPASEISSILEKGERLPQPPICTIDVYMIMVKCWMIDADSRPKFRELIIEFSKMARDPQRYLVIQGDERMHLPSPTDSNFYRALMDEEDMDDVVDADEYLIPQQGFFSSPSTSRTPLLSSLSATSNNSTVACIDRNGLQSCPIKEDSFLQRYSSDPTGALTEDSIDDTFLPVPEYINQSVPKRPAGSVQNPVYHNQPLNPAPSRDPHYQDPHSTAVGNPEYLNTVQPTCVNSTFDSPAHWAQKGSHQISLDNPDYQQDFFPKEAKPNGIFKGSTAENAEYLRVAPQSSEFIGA

With `Cc1cc(O)n2nc(SCc3cccc(Cl)c3)nc2n1`, the IC50 was 92 nM in [1]; above 40000 nM with A-431 [2]; above 80000 nM in the assay with A549 [3]; 131 nM in assay [4]; 59 nM in assay [5]; above 80000 nM in the assay on NCI-H460 [6].
Turning to `Cc1cc(=O)n2nc(SCc3ccc(Cl)cc3)nc2[nH]1`, the IC50 turned out to be 113 nM in assay [1]; 32500 nM in the assay with A-431 [2]; 61400 nM in the assay on A549 [3]; 54 nM in assay [4]; 182 nM in assay [5]; 56500 nM with NCI-H460 [6].
Turning to `Cc1cc(=O)n2nc(SCc3cccc(C(F)(F)F)c3)nc2[nH]1`, the IC50 was 94 nM in assay [1]; 21800 nM with A-431 [2]; 72000 nM with A549 [3]; 81 nM in [4]; 84 nM in assay [5]; 65800 nM in the assay with NCI-H460 [6].
In the case of `Cc1cc(=O)n2nc(SCc3ccc(F)cc3)nc2[nH]1`, the IC50 in [1] is 203 nM; in the assay with A-431 [2], above 40000 nM; in the assay with A549 [3], above 80000 nM; in assay [4], 52 nM; in assay [5], 56 nM; in the assay with NCI-H460 [6], above 80000 nM.
Turning to `Cc1cc(=O)n2nc(SCc3ccc([N+](=O)[O-])cc3)nc2[nH]1`, the IC50 was 104 nM in assay [1]; above 40000 nM with A-431 [2]; above 80000 nM with A549 [3]; 107 nM in [4]; 76 nM in assay [5]; above 80000 nM in the assay with NCI-H460 [6].
`Cc1cc(=O)n2nc(SCc3ccc(C(C)C)cc3)nc2[nH]1`: the viability at 20 µM in the assay with A549 [7] is 79.6%; with NCI-H460 [14], 71.6%; in the assay on A-431 [15], 50.7%. Also, the viability at 10 µM was found to be 86.7% with NCI-H460 [8], 89.7% in the assay with A549 [11] and 71.7% in the assay on A-431 [16]. Further, the viability at 30 µM amounted to 38.8% in the assay on A-431 [9], 56% with NCI-H460 [13] and 65.3% with A549 [18]. For the same compound, the viability at 40 µM worked out at 41.8% in the assay with NCI-H460 [10], 43.4% in the assay on A549 [12] and 17.7% in the assay with A-431 [17]. Also, the IC50 in [1] is 50 nM; in the assay with A-431 [2], 17300 nM; with A549 [3] it was 35200 nM; in assay [4], 80 nM; in assay [5], 62 nM; with NCI-H460 [6], 31800 nM.
`Cc1ccc(CSc2nc3[nH]c(C)cc(=O)n3n2)cc1`: the viability at 30 µM with A-431 [9] was found to be 41.7%. Also, the IC50 in assay [1] was found to be 79 nM; in the assay with A-431 [2] it was 15800 nM; in the assay with A549 [3], 50100 nM; in [4], 311 nM; in [5] it was 168 nM; in the assay with NCI-H460 [6] it was 49900 nM. In the assay on A-431 [15], the viability at 20 µM turned out to be 62.5%. Besides, the viability at 10 µM with A-431 [16] was found to be 75.8%. In the assay with A-431 [17], the viability at 40 µM stood at 32.5%.
Take `Cc1cc(=O)n2nc(SCc3cccc([N+](=O)[O-])c3)nc2[nH]1`: the IC50 in assay [1] is 89 nM; in the assay on A-431 [2] it was above 40000 nM; in the assay with A549 [3], above 80000 nM; in [4], 157 nM; in assay [5], 77 nM; in the assay with NCI-H460 [6] it was above 80000 nM.
For `Cc1cc(=O)n2nc(SCc3ccc(C(C)(C)C)cc3)nc2[nH]1`, the IC50 came to 65 nM in [1], 24400 nM in the assay on A-431 [2], 60500 nM in the assay on A549 [3] and 59000 nM in the assay on NCI-H460 [6].
As to `Cc1cc(=O)n2nc(SCc3ccc(Cl)cc3Cl)nc2[nH]1`, the viability at 20 µM in the assay on A549 [7] was determined as 77%; in the assay with NCI-H460 [14], 65.7%. The values for the viability at 10 µM with NCI-H460 [8] and with A549 [11] were 83.5% and 88.3%, respectively. Further, the viability at 40 µM amounted to 34.9% with NCI-H460 [10] and 46.8% in the assay with A549 [12]. Further, the results for the viability at 30 µM in the assay with NCI-H460 [13] and in the assay with A549 [18] were 51% and 61.2%, respectively. For the same compound, the concentration for half-maximal inhibition (IC50) in assay [1] worked out at 42 nM; with A-431 [2] it was 18200 nM; with A549 [3] it was 34900 nM; in assay [4] it was 141 nM; in assay [5], 141 nM; in the assay with NCI-H460 [6] it was 27200 nM.

The IC50 is the midpoint of a concentration-inhibition curve.

Source of the values: ChEMBL document CHEMBL4340550, “Structure based designing of triazolopyrimidone-based reversible inhibitors for kinases involved in NSCLC” (Bioorg Med Chem Lett, 2019).
